Data set [1] has as its target T1, ATP-dependent translocase ABCB1 (Homo sapiens, UniProt P08183). The data set is described as follows: Inhibition of P-gp in human U87-TxR cells assessed as increase in Rho123 accumulation at 50 nM measured after 30 mins by flow cytometry. Format: cell-based. The conditions noted are these: 0.5 h, 0.05 µM. A general note: In flow cytometry, cells or beads pass a laser one at a time.

The next data set deals with MRC5. The data set is described as follows: Cytotoxicity against human MRC5 cells assessed as reduction in cell viability incubated for 72 hrs by MTT assay. Format: cell-based. The conditions noted are these: MRC5, 72 h. A general note: Tetrazolium dyes change colour on reduction, which living cells bring about.
The nature of data set [2]: Cytotoxicity against human U87-TxR cells assessed as reduction in cell viability incubated for 72 hrs by MTT assay. Format: functional, cell-based.
The nature of data set [3]: Selectivity index, ratio of IC50 for human MRC5 cells to IC50 for human U87 cells. The conditions noted are these: MRC5 cells versus U87 cells, read-out: Ratio IC50. Format: toxicity.
The target of data set [4] is T1, ATP-dependent translocase ABCB1. The data set is described as follows: Inhibition of P-gp in human U87-TxR cells assessed as increase in Rho123 accumulation at 2.5 uM measured after 72 hrs by flow cytometry. Format: cell-based.
Data set [5] deals with T2, Thioredoxin reductase 1, cytoplasmic (Rattus norvegicus, UniProt O89049).
T2 sequence (O89049 whole entry): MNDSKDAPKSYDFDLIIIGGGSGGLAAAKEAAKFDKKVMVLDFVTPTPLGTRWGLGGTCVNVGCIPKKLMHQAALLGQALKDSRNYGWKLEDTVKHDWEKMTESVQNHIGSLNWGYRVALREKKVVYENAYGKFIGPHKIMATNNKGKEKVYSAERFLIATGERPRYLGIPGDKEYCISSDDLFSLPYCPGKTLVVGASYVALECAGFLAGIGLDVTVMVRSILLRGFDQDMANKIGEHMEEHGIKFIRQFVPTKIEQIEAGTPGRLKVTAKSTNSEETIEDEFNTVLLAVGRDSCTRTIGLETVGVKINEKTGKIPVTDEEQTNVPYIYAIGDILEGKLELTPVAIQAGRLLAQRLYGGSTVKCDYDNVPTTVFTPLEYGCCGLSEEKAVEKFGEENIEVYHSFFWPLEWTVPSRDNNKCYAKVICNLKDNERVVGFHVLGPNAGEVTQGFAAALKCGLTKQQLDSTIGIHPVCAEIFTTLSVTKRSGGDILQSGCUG
The data set can be described thus: Inhibition of recombinant rat TrxR1 using DTNB as substrate preincubated for 15 mins followed by substrate addition and measured for 20 mins by colorimetry.

The next data set has as its system SH-SY5Y. The data set is described as follows: Inhibition of TrxR in human SH-SY5Y cell lysates at 5 uM using DTNB as substrate preincubated for 15 mins followed by substrate addition and measured for 20 mins by colorimetry relative to control. The data set is classed as subcellular. The conditions noted are these: time 35.0 min.
The target in data set [6] is T1, ATP-dependent translocase ABCB1. The data set is described as follows: Inhibition of P-gp in human U87-TxR cells assessed as increase in Rho123 accumulation at 5 uM measured after 30 mins by flow cytometry. Format: cell-based. The settings on record: 0.5 h.
The nature of data set [7]: Selectivity index, ratio of IC50 for human MRC5 cells to IC50 for human U87-TxR cells. The data set is classed as toxicity. The conditions noted are these: MRC5 cells versus U87-TxR cells, read-out: Ratio IC50.
Data set [8] has as its target T3, Thioredoxin reductase 1, cytoplasmic (Homo sapiens) (UniProt Q16881).
T3 sequence (whole entry): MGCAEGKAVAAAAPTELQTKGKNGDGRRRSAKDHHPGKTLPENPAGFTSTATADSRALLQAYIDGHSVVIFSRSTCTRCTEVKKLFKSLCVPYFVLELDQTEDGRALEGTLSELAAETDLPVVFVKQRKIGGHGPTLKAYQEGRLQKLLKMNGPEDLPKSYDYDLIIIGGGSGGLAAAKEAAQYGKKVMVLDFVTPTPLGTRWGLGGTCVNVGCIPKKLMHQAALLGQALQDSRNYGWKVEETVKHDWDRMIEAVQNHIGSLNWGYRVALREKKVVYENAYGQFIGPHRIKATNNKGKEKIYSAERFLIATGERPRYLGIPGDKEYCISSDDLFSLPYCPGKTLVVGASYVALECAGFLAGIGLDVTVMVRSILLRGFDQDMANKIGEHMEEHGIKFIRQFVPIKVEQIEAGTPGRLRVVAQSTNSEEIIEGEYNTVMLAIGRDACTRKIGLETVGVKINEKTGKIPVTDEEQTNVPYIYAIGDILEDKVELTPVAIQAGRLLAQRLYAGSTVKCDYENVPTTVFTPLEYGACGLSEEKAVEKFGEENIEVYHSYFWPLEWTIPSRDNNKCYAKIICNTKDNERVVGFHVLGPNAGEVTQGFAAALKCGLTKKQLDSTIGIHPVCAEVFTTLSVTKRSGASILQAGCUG
The data set is described as follows: Inhibition of TrxR1 in human U87-TxR cells assessed as increase in RONS level at 10 uM measured after 24 hrs by dihydrorhodamine 123 dye based flow cytometry. Format: cell-based.

In another data set the test system is U-87 MG. The data set can be described thus: Cytotoxicity against human U87 cells assessed as reduction in cell viability incubated for 72 hrs by MTT assay. Format: functional, cell-based, U-87MG ATCC.
Data set [9] deals with T3, Thioredoxin reductase 1, cytoplasmic (Homo sapiens). The data set is described as follows: Inhibition of TrxR1 in human U87 cells assessed as increase in RONS level at 10 uM measured after 24 hrs by dihydrorhodamine 123 dye based flow cytometry. The data set is classed as cell-based.
Data set [10] concerns the target T1, ATP-dependent translocase ABCB1. The data set is described as follows: Inhibition of P-gp in human U87-TxR cells assessed as increase in Rho123 accumulation measured after 30 mins by flow cytometry. Format: cell-based. The settings on record: 0.5 h.

In general, pIC50 refers to −log10 of the IC50, conventionally taken in molar units. What is called inhibition is the percentage by which the read-out fell short of the control.

pIC50: −log10 of the molar value. Calls of active or inactive are those of the source. No cut-off for these calls is given here.

T1 sequence (P08183 whole entry): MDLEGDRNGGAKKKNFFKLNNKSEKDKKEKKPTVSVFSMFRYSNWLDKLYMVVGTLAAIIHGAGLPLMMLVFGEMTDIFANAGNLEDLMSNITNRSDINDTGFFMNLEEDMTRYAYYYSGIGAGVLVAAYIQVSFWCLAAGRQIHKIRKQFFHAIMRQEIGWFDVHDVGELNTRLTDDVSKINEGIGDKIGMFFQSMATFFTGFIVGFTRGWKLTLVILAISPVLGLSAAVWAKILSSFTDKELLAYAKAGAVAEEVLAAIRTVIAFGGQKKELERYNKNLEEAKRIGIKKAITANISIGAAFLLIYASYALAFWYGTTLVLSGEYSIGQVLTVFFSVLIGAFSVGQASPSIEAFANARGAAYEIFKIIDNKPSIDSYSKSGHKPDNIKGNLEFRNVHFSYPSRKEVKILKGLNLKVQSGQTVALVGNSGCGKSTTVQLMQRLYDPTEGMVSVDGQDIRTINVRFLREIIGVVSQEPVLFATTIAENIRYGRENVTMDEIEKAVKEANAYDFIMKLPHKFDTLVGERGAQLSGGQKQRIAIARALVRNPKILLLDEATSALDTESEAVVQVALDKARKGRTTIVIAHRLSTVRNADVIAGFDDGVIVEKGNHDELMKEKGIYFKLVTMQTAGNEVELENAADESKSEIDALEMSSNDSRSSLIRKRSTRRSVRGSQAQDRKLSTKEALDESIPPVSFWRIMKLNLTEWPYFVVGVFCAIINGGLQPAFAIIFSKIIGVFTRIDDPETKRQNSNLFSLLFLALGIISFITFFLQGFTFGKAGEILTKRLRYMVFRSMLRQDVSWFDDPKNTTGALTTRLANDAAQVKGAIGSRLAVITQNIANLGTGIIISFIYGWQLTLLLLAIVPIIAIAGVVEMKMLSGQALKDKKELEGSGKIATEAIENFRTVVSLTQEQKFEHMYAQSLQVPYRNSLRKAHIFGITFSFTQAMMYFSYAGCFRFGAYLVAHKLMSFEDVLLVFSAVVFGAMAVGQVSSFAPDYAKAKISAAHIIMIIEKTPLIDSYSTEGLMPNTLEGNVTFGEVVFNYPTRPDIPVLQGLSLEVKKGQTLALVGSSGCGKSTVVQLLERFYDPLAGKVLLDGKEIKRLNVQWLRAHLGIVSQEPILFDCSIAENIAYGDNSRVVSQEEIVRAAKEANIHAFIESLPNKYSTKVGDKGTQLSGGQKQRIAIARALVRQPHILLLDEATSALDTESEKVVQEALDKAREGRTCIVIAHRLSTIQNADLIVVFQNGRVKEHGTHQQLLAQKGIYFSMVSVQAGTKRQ

On to `COc1cc2c(cc1OC)CN(CCc1ccc(NC(=O)c3cc(OC)c(OC)cc3NC(=O)c3cnc4ccccc4c3)cc1)CC2` [TARIQUIDAR], for which, in [1], the “inhibition (INH)” value was “Active”.
Turning to `CN(CCOC(=O)/C=C/C(=O)c1ccc(F)cc1)C(C(=O)NC(C)(C)C)c1ccccc1F` (configuration not stated), the pIC50 in the data set with MRC5 is 4.83; in [2], 5.21; in data set [5] it was 5.30; in the data set on U-87 MG, 5.08. The selectivity ratio in [3] and in [7] was 2 throughout. For the same compound, the “inhibition (INH)” value in [4] was “Not Active”; in data set [6], “Active”. In the data set on SH-SY5Y, this compound returned an inhibition of 64%. For the same compound, in [8], the inhibition entry is “Active”.
For the compound `Cc1cccc(C(C(=O)NC2CCCCC2)N(C)CCOC(=O)/C=C/C(=O)c2ccc(F)cc2)c1` (configuration not stated), the pIC50 in the data set with MRC5 was 4.85; in data set [2] it was 5.11; in data set [5] it was 5.49; in the data set with U-87 MG, 5.15. The selectivity ratio in data set [3] and in data set [7] was 1.9 throughout. The “inhibition (INH)” value in [4] and in [6] was “Active” in each case. The compound also yielded an inhibition in the data set on SH-SY5Y of 53%. For the same compound, in data set [8], the inhibition entry was “Active”.
Turning to `CN(CCOC(=O)/C=C/C(=O)c1ccc(F)cc1)C(C(=O)NC(C)(C)C)c1ccc(F)c(F)c1` (configuration not stated), the pIC50 was 4.75 in the data set on MRC5, 5.11 in data set [2], 6.72 in data set [5] and 5.15 in the data set with U-87 MG. Moreover, the selectivity ratio in [3] and in data set [7] was 2.4 in each case. The “inhibition (INH)” value is given as “Not Active” in data set [4] and “Active” in data set [6]. For the same compound, the inhibition entry in data set [9] is “Active”. The inhibition in the data set with SH-SY5Y was 84.6%.
Take `Cc1cccc(C(C(=O)NC(C)(C)C)N(C)CCOC(=O)/C=C/C(=O)c2ccc(F)cc2)c1` (configuration not stated): the pIC50 with MRC5 is 4.87; in data set [2], 5.08; in [5] it was 5.82; in the data set on U-87 MG, 5.10. Further, the selectivity ratio in [3] and in data set [7] was 1.6 each time. Also, the “inhibition (INH)” value in [4] is on record as “Not Active”; in [6], “Active”. Also, the inhibition entry in [9] and in [8] was “Active” each time. In the data set on SH-SY5Y, this compound yielded an inhibition of 33%.
Consider `Cc1ccc(C(C(=O)NC(C)(C)C)N(C)CCOC(=O)/C=C/C(=O)c2ccc(F)cc2)cc1` (configuration not stated), for which the pIC50 in the data set on MRC5 was 4.85; in [2], 5.21; in data set [5], 6.23; in the data set with U-87 MG, 5.16. Also, the selectivity ratio in data set [3] and in [7] was 2.2 each time. Besides, the “inhibition (INH)” value is listed as “Not Active” in data set [4] and “Active” in [6]. In addition, the inhibition result in data set [9] and in data set [8] was “Active” throughout. The compound also gave an inhibition with SH-SY5Y of 82.7%.
As to `CN(CCOC(=O)/C=C/C(=O)c1ccc(F)cc1)C(C(=O)NC(C)(C)C)c1ccc(F)cc1` (configuration not stated), the pIC50 was 4.93 in the data set with MRC5, 5.07 in [2] and 5.05 with U-87 MG. Also, the selectivity ratio in data set [3] and in data set [7] was 1.4 in each case. For the same compound, the “inhibition (INH)” value in data set [10] is listed as “Dose-dependent effect”. The inhibition entry in data set [8] is “Active”.
Consider `Cc1ccc(C(=O)/C=C/C(=O)OCCN(C)C(C(=O)NC2CCCCC2)c2ccc(F)cc2)cc1` (configuration not stated), for which the pIC50 in the data set on MRC5 was 4.85; in data set [2], 4.93; in [5], 4.43; in the data set with U-87 MG it was 5.23. The selectivity ratio in data set [3] and in data set [7] was 1.6 throughout. Also, the figures for the “inhibition (INH)” value in [4] and in data set [6] were “Not Active” and “Active”, respectively. Moreover, the inhibition result in data set [9] and in data set [8] was “Active” each time. The same compound had an inhibition in the data set on SH-SY5Y of 68.8%.
On to `CCN(CCOC(=O)/C=C/C(=O)c1ccc(F)cc1)C(C(=O)NC(C)(C)C)c1cccc(C)c1` (configuration not stated), for which the pIC50 in the data set on MRC5 is 4.89; in [2], 5.22; in data set [5], 5.47; in the data set on U-87 MG, 5.15. Also, the selectivity ratio in data set [3] and in data set [7] was 2 throughout. For the same compound, the “inhibition (INH)” value is “Not Active” in [4] and “Active” in data set [6]. For the same compound, the inhibition result in data set [9] and in data set [8] was “Active” in each case. The same compound showed an inhibition in the data set on SH-SY5Y of 50.2%.
